{
  "source": "patent US11918582B2",
  "about": "(RAPT Therapeutics, Inc., priority 2021, dated 2024)",
  "target": "T1, human HPK1 (MAP4K1) (Homo sapiens, UniProt Q92918)",
  "T1 construct": "Recombinant human HPK1 kinase domain was obtained from ThermoFisher (Cat. #PV6357) and SignalChem (Cat. #M23-11G); purchased ThermoFisher; SignalChem PV6357; M23-11G",
  "T1 sequence (Q92918 17-274 limits assumed)": "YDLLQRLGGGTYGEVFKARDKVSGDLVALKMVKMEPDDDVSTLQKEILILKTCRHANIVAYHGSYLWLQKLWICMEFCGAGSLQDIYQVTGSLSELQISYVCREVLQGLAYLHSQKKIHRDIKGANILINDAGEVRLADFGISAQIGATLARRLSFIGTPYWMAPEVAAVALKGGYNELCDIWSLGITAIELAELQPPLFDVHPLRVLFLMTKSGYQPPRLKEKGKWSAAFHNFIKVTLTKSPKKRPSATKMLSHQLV",
  "assay": "Biochemical assay for activity against HPK1 (ADP-Glo, MBP substrate)",
  "settings": "recombinant human HPK1 kinase domain, 1 nM enzyme, ADP-Glo luminescence",
  "description": "These compounds are made by the synthetic methods described earlier herein. Example 227 Biochemical Assay for Testing Compounds for Activity against HPK1\nThe enzymatic activity of human HPK1 (MAP4K1) was monitored in a biochemical assay in the presence or absence of compounds, using a peptide substrate (myelin basic protein, MBP), with an ADP-Glo assay kit (Promega, Cat. #V9103). An increase in phosphorylation of the peptide by HPK1 was indicative of its kinase activity.\nRecombinant human HPK1 kinase domain was obtained from ThermoFisher (Cat. #PV6357) and SignalChem (Cat. #M23-11G). A 1 nM HPK1 kinase enzyme solution was prepared from the HPK1 stock received from the commercial supplier using an assay buffer containing 50 mM HEPES (4-(2-hydroxyethyl)-1-piperazineethanesulfonic acid) pH 7.5 (Fisher Scientific, Cat. #H1035), 150 mM NaCl (Fisher Scientific, Cat. #50843067), 3 mM TCEP-HCl (Tris(2-carboxyethyl)phosphine hydrochloride; Fisher Scientific, Cat. #PIPG82080), 10 mM MgCl2 (Fisher Scientific, Cat. #AM9530G), 0.005% Tween-20 (Fisher Scientific, Cat. #BP337500) and 0.01% BSA (bovine serum albumin; ThermoFisher, Cat. #15260037), in ultra-pure water. The final concentration of the assay buffer was 770 nM. A 5 mM stock solution of the peptide substrate was prepared using […] MBP (Myelin Basic Protein, Active Motif, Cat. #31314), 10 mM ATP (adenosine 5′-triphosphate; Sigma-Aldrich, Cat. #GE27-2056-01) and of assay buffer.\nTest compounds were dissolved in DMSO (dimethyl sulfoxide) at 10 mM and then serial dilutions were prepared using a ViaFlow assist multichannel dispenser (Integra ViaFlo). 20 nL of test compounds at various concentrations were dispensed into a 1536-well assay plate (Corning Cat. #7247) using an Echo Nanoliter dispenser (Labcyte ECHO 550). […] of a 1 nM solution of HPK1 kinase enzyme diluted in assay buffer was added to the compound-containing plate using a Mantis Microliter dispenser (Formulatrix Mantis), covered with a lid, and incubated for 15 minutes at room temperature. 50 nL of a 5 mM stock solution of the peptide substrate (MBP) were added using the Echo Nanoliter dispenser. The plate was covered with a lid, centrifugated at 500 rpm for 1 minute and incubated for 2 hours at room temperature. […] of ADP-Glo reagent A was added using the Mantis Microliter dispenser, centrifugated at 500 rpm for 30 seconds and incubated for 40 minutes at room temperature. […] of ADP-Glo reagent B was added using the Mantis Microliter dispenser, centrifugated at 500 rpm for 30 seconds and incubated for 30 minutes at room temperature. Peptide phosphorylation was measured by luminescence on an Envision plate reader (PerkinElmer).\nThe HPK1 biochemical IC50 activity levels of the compounds of Examples 1-225 were tested using this assay and are shown in Table 2.",
  "note": "Counter-ions that a name gives are not always drawn.",
  "data": [
    {"compound": "CN1CCc2ccc(Nc3ncc4cnn(C5CCOCC5)c4n3)cc2C1", "note": "[Example 12, 2-methyl-N-(1-(tetrahydro-2H-pyran-4-yl)-1H-pyrazolo[3,4-d]pyrimidin-6-yl)-1,2,3,4-tetrahydroisoquinolin-7-amine]", "values": [
      {"measurement": "IC50", "result": "< 100", "unit": "nM"}
    ]},
    {"compound": "CN1CCc2ccc(Nc3ncc4cnn(C5CC6(COC6)C5)c4n3)cc2C1", "note": "[Example 13, N-(1-(2-oxaspiro[3.3]heptan-6-yl)-1H-pyrazolo[3,4-d]pyrimidin-6-yl)-2-methyl-1,2,3,4-tetrahydroisoquinolin-7-amine]", "values": [
      {"measurement": "IC50", "result": "< 100", "unit": "nM"}
    ]},
    {"compound": "CN1CCc2ccc(Nc3ncc4cnn(CC5COC5)c4n3)cc2C1", "note": "[Example 14, 2-methyl-N-(1-(oxetan-3-ylmethyl)-1H-pyrazolo[3,4-d]pyrimidin-6-yl)-1,2,3,4-tetrahydroisoquinolin-7-amine]", "values": [
      {"measurement": "IC50", "result": "< 100", "unit": "nM"}
    ]},
    {"compound": "CN1CCc2ccc(Nc3ncc4cnn(C5CCCOC5)c4n3)cc2C1", "note": "(stereo not drawn) [Example 15, 2-methyl-N-(1-(tetrahydro-2H-pyran-3-yl)-1H-pyrazolo[3,4-d]pyrimidin-6-yl)-1,2,3,4-tetrahydroisoquinolin-7-amine]", "values": [
      {"measurement": "IC50", "result": "< 100", "unit": "nM"}
    ]},
    {"compound": "CN1CCc2ccc(Nc3ncc4cnn(C5CCNCC5)c4n3)cc2C1", "note": "[Example 16, 2-methyl-N-(1-(piperidin-4-yl)-1H-pyrazolo[3,4-d]pyrimidin-6-yl)-1,2,3,4-tetrahydroisoquinolin-7-amine hydrochloride]", "values": [
      {"measurement": "IC50", "result": "< 100", "unit": "nM"}
    ]},
    {"compound": "CN1CCc2ccc(Nc3ncc4cnn([C@H]5CCCNC5)c4n3)cc2C1", "note": "[Example 17, (S)-2-methyl-N-(1-(piperidin-3-yl)-1H-pyrazolo[3,4-d]pyrimidin-6-yl)-1,2,3,4-tetrahydroisoquinolin-7-amine hydrochloride]", "values": [
      {"measurement": "IC50", "result": "< 100", "unit": "nM"}
    ]},
    {"compound": "C=CCCN1CCc2ccc(Nc3ncc4cnn(CCC=C)c4n3)cc2C1", "note": "[Example 18, 2-(but-3-en-1-yl)-N-(1-(but-3-en-1-yl)-1H-pyrazolo[3,4-d]pyrimidin-6-yl)-1,2,3,4-tetrahydroisoquinolin-7-amine]", "values": [
      {"measurement": "IC50", "result": "< 100", "unit": "nM"}
    ]},
    {"compound": "CN1CCc2ccc(Nc3ncc4cnn([C@H]5CCOC5)c4n3)cc2C1", "note": "[Example 19, (S)-2-methyl-N-(1-(tetrahydrofuran-3-yl)-1H-pyrazolo[3,4-d]pyrimidin-6-yl)-1,2,3,4-tetrahydroisoquinolin-7-amine]", "values": [
      {"measurement": "IC50", "result": "< 100", "unit": "nM"}
    ]},
    {"compound": "CN1CCc2ccc(Nc3ncc4cnn([C@@H]5CCOC5)c4n3)cc2C1", "note": "[Example 20, (R)-2-methyl-N-(1-(tetrahydrofuran-3-yl)-1H-pyrazolo[3,4-d]pyrimidin-6-yl)-1,2,3,4-tetrahydroisoquinolin-7-amine]", "values": [
      {"measurement": "IC50", "result": "< 100", "unit": "nM"}
    ]},
    {"compound": "CCC1CCCCC1n1ncc2cnc(Nc3cc4c(cc3OC)CCN(C)C4)nc21", "note": "(stereo not drawn) [Example 25, N-(1-(2-ethylcyclohexyl)-1H-pyrazolo[3,4-d]pyrimidin-6-yl)-6-methoxy-2-methyl-1,2,3,4-tetrahydroisoquinolin-7-amine]", "values": [
      {"measurement": "IC50", "result": "< 100", "unit": "nM"}
    ]},
    {"compound": "COc1cc2c(cc1Nc1ncc3cnn([C@H]4CC[C@@H](C(=O)O)CC4)c3n1)CN(C)CC2", "note": "[Example 26, (1s,4s)-4-(6-((6-methoxy-2-methyl-1,2,3,4-tetrahydroisoquinolin-7-yl)amino)-1H-pyrazolo[3,4-d]pyrimidin-1-yl)cyclohexane-1-carboxylic acid]", "values": [
      {"measurement": "IC50", "result": "< 100", "unit": "nM"}
    ]},
    {"compound": "COc1cc2c(cc1Nc1ncc3cnn([C@H]4CC[C@@H](C(N)=O)CC4)c3n1)CN(C)CC2", "note": "[Example 27, (1s,4s)-4-(6-((6-methoxy-2-methyl-1,2,3,4-tetrahydroisoquinolin-7-yl)amino)-1H-pyrazolo[3,4-d]pyrimidin-1-yl)cyclohexane-1-carboxamide]", "values": [
      {"measurement": "IC50", "result": "< 100", "unit": "nM"}
    ]},
    {"compound": "COc1cc2c(cc1Nc1ncc3cnn([C@H]4CCC[C@H](C(N)=O)C4)c3n1)CN(C)CC2", "note": "[Example 31, (1S,3S)-3-(6-((6-methoxy-2-methyl-1,2,3,4-tetrahydroisoquinolin-7-yl)amino)-1H-pyrazolo[3,4-d]pyrimidin-1-yl)cyclohexane-1-carboxamide]", "values": [
      {"measurement": "IC50", "result": "< 100", "unit": "nM"}
    ]},
    {"compound": "CN1CCc2ccc(Nc3ncc4cnn([C@H]5CC[C@H](C(=O)O)CC5)c4n3)cc2C1", "note": "[Example 32, (1r,4r)-4-(6-((2-methyl-1,2,3,4-tetrahydroisoquinolin-7-yl)amino)-1H-pyrazolo[3,4-d]pyrimidin-1-yl)cyclohexane-1-carboxylic acid]", "values": [
      {"measurement": "IC50", "result": "< 100", "unit": "nM"}
    ]},
    {"compound": "COc1cc2c(cc1Nc1ncc3cnn(C4CCCCC4)c3n1)CN(C)CC2", "note": "[Example 33, N-(1-cyclohexyl-1H-pyrazolo[3,4-d]pyrimidin-6-yl)-6-methoxy-2-methyl-1,2,3,4-tetrahydroisoquinolin-7-amine]", "values": [
      {"measurement": "IC50", "result": "< 100", "unit": "nM"}
    ]},
    {"compound": "COc1cc2c(cc1Nc1ncc3cnn(C4C=CCCC4)c3n1)CN(C)CC2", "note": "(stereo not drawn) [Example 34, N-(1-(cyclohex-2-en-1-yl)-1H-pyrazolo[3,4-d]pyrimidin-6-yl)-6-methoxy-2-methyl-1,2,3,4-tetrahydroisoquinolin-7-amine]", "values": [
      {"measurement": "IC50", "result": "< 100", "unit": "nM"}
    ]},
    {"compound": "CO[C@H]1CC[C@H](n2ncc3cnc(Nc4ccc5c(c4)CN(C)CC5)nc32)CC1", "note": "[Example 35, N-(1-((1r,4r)-4-methoxycyclohexyl)-1H-pyrazolo[3,4-d]pyrimidin-6-yl)-2-methyl-1,2,3,4-tetrahydroisoquinolin-7-amine]", "values": [
      {"measurement": "IC50", "result": "< 100", "unit": "nM"}
    ]},
    {"compound": "CO[C@H]1CC[C@@H](n2ncc3cnc(Nc4ccc5c(c4)CN(C)CC5)nc32)CC1", "note": "[Example 36, N-(1-((cis)-4-methoxycyclohexyl)-1H-pyrazolo[3,4-d]pyrimidin-6-yl)-2-methyl-1,2,3,4-tetrahydroisoquinolin-7-amine]", "values": [
      {"measurement": "IC50", "result": "< 100", "unit": "nM"}
    ]},
    {"compound": "COc1cc2c(cc1Nc1ncc3cnn([C@H]4CC[C@H](C(N)=O)CC4)c3n1)CN(C)CC2", "note": "[Example 38, (1r,4r)-4-(6-((6-methoxy-2-methyl-1,2,3,4-tetrahydroisoquinolin-7-yl)amino)-1H-pyrazolo[3,4-d]pyrimidin-1-yl)cyclohexane-1-carboxamide]", "values": [
      {"measurement": "IC50", "result": "< 100", "unit": "nM"}
    ]},
    {"compound": "COc1cc2c(cc1Nc1ncc3cnn([C@H]4CC[C@@H](O)CC4)c3n1)CN(C)CC2", "note": "[Example 39, (1s,4s)-4-(6-((6-methoxy-2-methyl-1,2,3,4-tetrahydroisoquinolin-7-yl)amino)-1H-pyrazolo[3,4-d]pyrimidin-1-yl)cyclohexan-1-ol]", "values": [
      {"measurement": "IC50", "result": "< 100", "unit": "nM"}
    ]},
    {"compound": "COc1cc2c(cc1Nc1ncc3c(C)nn([C@H]4CC[C@@H](O)CC4)c3n1)CN(C)CC2", "note": "[Example 45, (cis)-4-(6-((6-methoxy-2-methyl-1,2,3,4-tetrahydroisoquinolin-7-yl)amino)-3-methyl-1H-pyrazolo[3,4-d]pyrimidin-1-yl)cyclohexan-1-ol]", "values": [
      {"measurement": "IC50", "result": "< 100", "unit": "nM"}
    ]},
    {"compound": "COc1cc2c(cc1Nc1ncc3cnn([C@H]4CC[C@@H](OC)CC4)c3n1)CN(C)CC2", "note": "[Example 46, 6-methoxy-N-(1-((1s,4s)-4-methoxycyclohexyl)-1H-pyrazolo[3,4-d]pyrimidin-6-yl)-2-methyl-1,2,3,4-tetrahydroisoquinolin-7-amine]", "values": [
      {"measurement": "IC50", "result": "< 100", "unit": "nM"}
    ]},
    {"compound": "COc1cc2c(cc1Nc1ncc3cnn([C@H]4CC[C@H](OC)CC4)c3n1)CN(C)CC2", "note": "[Example 47, 6-methoxy-N-(1-(trans-4-methoxycyclohexyl)-1H-pyrazolo[3,4-d]pyrimidin-6-yl)-2-methyl-1,2,3,4-tetrahydroisoquinolin-7-amine]", "values": [
      {"measurement": "IC50", "result": "< 100", "unit": "nM"}
    ]},
    {"compound": "COc1cc2c(cc1Nc1ncc3cnn([C@H]4CC[C@H](O)CC4)c3n1)CN(C)CC2", "note": "[Example 49, trans-4-(6-((6-methoxy-2-methyl-1,2,3,4-tetrahydroisoquinolin-7-yl)amino)-1H-pyrazolo[3,4-d]pyrimidin-1-yl)cyclohexan-1-ol]", "values": [
      {"measurement": "IC50", "result": "< 100", "unit": "nM"}
    ]}
  ]
}
